Experimental data: patent US20110160265A1, “METHOD OF TREATING MOTOR DISORDERS WITH ALPHA-2B ADRENERGIC RECEPTOR AGONISTS” (priority 2007, published 2011)

What was measured:
[1] = test system: nigrostriatal-lesioned rats; test: Nigrostriatal-lesion-induced rotational behavior following amphetamine administration; assay type: in vivo; details: relative to Vehicle+Amphetamine, drug 2 amphetamine SC
Procedure: Table 4, below, indicates the changes in rotational behavior in nigrostriatal-lesioned rats treated with various alpha-2B receptor agonists and the psychostimulant amphetamine. Drug 1 was administered 15 minutes before amphetamine, and 10 minutes post-amphetamine, the animals were placed into the rotometer for 30 or 60 minutes. “% decrease rotations” indicates the percentage decrease in total rotations relative to the Vehicle+Amphetamine group. ^⋄ indicates significant difference (P<0.05) relative to Vehicle+Amphetamine treated animals. * indicates significant difference (P<0.05) relative to Vehicle+Vehicle treated animals.
Amphetamine-induced rotational behavior. Pre-Apomorphine-screened (rotated) rats (with lesions ≧95% DA cell loss) were purchased from Charles Rivers Laboratories. Animals were given ˜4 days to acclimate prior to testing. All animals weighted 250-300 g at the beginning of the study. Animals were treated with various combinations of vehicle or alpha-2B receptor agonist and amphetamine.
Vehicle or alpha-2B receptor agonist was administered (p.o.) 15 minutes before amphetamine (2 mg/kg s.c.). Rotational behavior was assessed 15 minutes post-amphetamine administration and was monitored for 60 minutes using a Rotometer system from San Diego Instruments (San Diego, Calif.).
(§1) For i.p. administration, the compounds are formulated in H2O with 0.5% DMSO and given in a volume of 1 ml/kg body weight by injecting into the intraperitoneal cavity. For p.o. administration, the compounds are formulated in H2O with 0.5% DMSO and given in a volume of 2 ml/kg body weight using a 25-gauge, 1.5 inch gavage needle that is slowly inserted through the esophagus into the stomach.

mice [2] = test: Amphetamine-induced hyperlocomotion (open field); assay type: in vivo; details: drug 2 amphetamine SC
Procedure: Table 2, below, indicates the locomotor responses of mice treated with various combinations of alpha-2B receptor agonists and the psychostimulant amphetamine. Drug 1 was administered 30 minutes after the animal was placed in the open field. Drug 2 was administered subcutaneously (SC) at 45 minutes after the animal was placed in the open field (15 minutes after drug 1). AUC indicates the total amount of locomotor activity after administration of drug 2. “% decrease activity” indicates the percentage decrease in total activity relative to the Vehicle+Amphetamine group. ° indicates significant difference (P<0.05) relative to Vehicle+Amphetamine treated animals. * indicates significant difference (P<0.05) relative to Vehicle+Vehicle treated animals.
(§2) Amphetamine- or cocaine-induced hyperactivity. Mice were placed in an open field apparatus (FlexField, San Diego Instruments, San Diego, Calif.). After 30 minutes of habituation, they received a vehicle or haloperidol injection or injection of alpha-2B receptor agonist followed by an injection of amphetamine (2 mg/kg, s.c.) or cocaine (10 mg/kg, i.p.) at minute 45. Their activity levels were subsequently measured for another 1 hour post-injection. Total activity over each 5 minute bin (21 total bins) was added to establish activity curve over the 105 minute testing.
as §1

mice [3] = test: Cocaine-induced hyperlocomotion (open field); assay type: in vivo; details: drug 2 cocaine SC; for % DECREASE ACTIVITY: relative to Vehicle+Cocaine
Procedure: Table 3, below, indicates the locomotor responses of mice treated with various combinations of alpha-2B receptor agonists and the psychostimulant cocaine. Drug 1 was administered 30 minutes after the animal was placed in the open field. Drug 2 was administered subcutaneously (SC) at 45 minutes after the animal was placed in the open field (15 minutes after drug 1). AUC indicates the total amount of locomotor activity after administration of drug 2. “% decrease activity” indicates the percentage decrease in total activity relative to the Vehicle+Cocaine group. ° indicates significant difference (P<0.05) relative to Vehicle+Cocaine treated animals. * indicates significant difference (P<0.05) relative to Vehicle+Vehicle treated animals.
as §2, §1

alpha-2A receptor = biological target: T1, alpha-2A receptor (Homo sapiens, UniProt P08913); test: Alpha-2A receptor activity (efficacy relative to brimonidine); assay type: cell-based; details: in words; b7: lacks significant activity = less than 40% of the efficacy of brimonidine at alpha-2A
T1 sequence (P08913 1-465): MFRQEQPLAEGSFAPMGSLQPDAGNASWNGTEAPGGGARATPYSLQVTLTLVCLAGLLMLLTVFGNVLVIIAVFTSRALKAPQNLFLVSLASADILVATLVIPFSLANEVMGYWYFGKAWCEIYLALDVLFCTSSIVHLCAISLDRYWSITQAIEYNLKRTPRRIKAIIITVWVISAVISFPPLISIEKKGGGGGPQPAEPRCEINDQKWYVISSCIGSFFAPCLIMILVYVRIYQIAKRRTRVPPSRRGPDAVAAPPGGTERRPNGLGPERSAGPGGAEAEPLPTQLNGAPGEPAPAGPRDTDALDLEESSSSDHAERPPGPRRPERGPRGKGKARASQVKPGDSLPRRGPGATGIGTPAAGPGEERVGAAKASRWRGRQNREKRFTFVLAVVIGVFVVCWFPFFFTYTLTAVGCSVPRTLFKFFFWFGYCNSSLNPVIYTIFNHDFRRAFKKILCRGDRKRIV
Excerpt: The methods of the present invention use alpha-2 agonists lacking significant activity at the alpha-2A receptor subtype. An agonist lacks significant alpha-2A receptor activity if the agonist has less than 40% of the efficacy of brimonidine at the alpha-2A receptor subtype. Compounds of the invention include, therefore, alpha-2B receptor agonists lacking significant alpha-2A activity; alpha 2B/2C receptor agonists lacking significant alpha-2A activity; and alpha-2C receptor agonists lacking significant alpha-2A activity.
Efficacy, also known as intrinsic activity, is a measure of maximal receptor activation achieved by a compound and can be determined using any accepted assay of alpha-adrenergic receptor activation, such as a cAMP or Receptor Selection and Amplification Technology (RSAT). Efficacy is represented as a ratio or percentage of the maximal effect of the drug to the maximal effect of a standard agonist for each receptor subtype. Brimonidine, itself an alpha-2B receptor agonist (it is has 100% the efficacy of brimonidine at the alpha-2B adrenergic receptor), is used as the standard agonist for the alpha-2B adrenergic receptors.
Agonist activity can be characterized using any of a variety of routine assays, including, for example, Receptor Selection and Amplification Technology (RSAT) assays (Messier et al., Pharmacol. Toxicol. 76:308-11 (1995); cyclic AMP assays (Shimizu et al., J. Neurochem. 16:1609-1619 (1969)); and cytosensor microphysiometry assays (Neve et al., J. Biol. Chem. 267:25748-25753 (1992)). Such assays generally are performed using cells that naturally express only a single alpha-adrenergic receptor subtype, or using transfected cells expressing a single recombinant alpha-adrenergic receptor subtype. The adrenergic receptor can be a human receptor or homolog of a human receptor having a similar pharmacology.
The RSAT assay measures receptor-mediated loss of contact inhibition resulting in selective proliferation of receptor-containing cells in a mixed population of confluent cells. The increase in cell number is assessed with an appropriate detectable marker gene such as beta-galactosidase, if desired, in a high throughput or ultra high throughput assay format. Receptors that activate the G protein, Gq, elicit the proliferative response. Alpha-adrenergic receptors, which normally couple to Gi, activate the RSAT response when coexpressed with a hybrid Gq protein containing a Gi receptor recognition domain, designated Gq/i5. Conklin et al., Nature 363:274-6 (1993)).
As an example, an RSAT assay can be performed essentially as follows. NIH-3T3 cells are plated at a density of 2×10^6 cells in 15 cm dishes and maintained in Dulbecco's modified Eagle's medium supplemented with 10% calf serum. One day later, cells are cotransfected by calcium phosphate precipitation with mammalian expression plasmids encoding p-SV-β-galactosidase (5-10 μg), receptor (1-2 μg) and G protein (1-2 μg). Carrier DNA, for example 40 μg salmon sperm DNA, also can be included to increase transfection efficiency. Fresh media is added on the following day; one to two days later, cells are harvested and frozen in 50 assay aliquots. Transfected cells are thawed, and 100 μl of cells added to 100 μl aliquots of compound to be tested, with various concentrations assayed in triplicate, for example, in 96-well plates. Incubation continues for 72 to 96 hours at 37° C. After washing with phosphate-buffered saline, β-galactosidase activity is determined by adding 200 μl of chromogenic substrate (3.5 mM O-nitrophenyl-β-D-galactopyranoside/0.5% NP-40 in phosphate buffered saline), incubating overnight at 30° C., and measuring optical density at 420 nm. The absorbancy is a measure of enzyme activity, which depends on cell number and reflects receptor-mediated cell proliferation. The EC50 and maximal effect (i.e., efficacy) of each drug at each receptor is determined.

OCCNC(=S)NCc1cccc(Cl)c1F [Compound A]
% DECREASE ROTATIONS ([1]; drug 1 0.03 mg/kg PO): 65% ^⋄ *
% DECREASE ACTIVITY REL TO VEH + AMPH (mice [2]; drug 1 0.03 mg/kg IP): 55% ^⋄
TOTAL ACTIVITY POST-AMPHETAMINE (AUC) (mice [2]; drug 1 0.03 mg/kg IP): 5524.8 ± 624.2
TOTAL ACTIVITY POST-COCAINE (AUC) (mice [3]; drug 1 0.03 mg/kg PO): 8469 ± 935.01
TOTAL ACTIVITY POST-COCAINE (AUC) (mice [3]; drug 1 0.1 mg/kg PO): 6457.67 ± 754.0
TOTAL ACTIVITY POST-COCAINE (AUC) (mice [3]; drug 1 0.3 mg/kg PO): 3543 ± 648.02
% DECREASE ACTIVITY (mice [3]; drug 1 0.03 mg/kg PO): 19% * ^
% DECREASE ACTIVITY (mice [3]; drug 1 0.1 mg/kg PO): 38% ^⋄ *
% DECREASE ACTIVITY (mice [3]; drug 1 0.3 mg/kg PO): 66% ^⋄
alpha-2A receptor activity (alpha-2A receptor): lack significant alpha-2A receptor activity

c1ccc2c(c1)CC[C@@H](Cc1c[nH]cn1)C2 [Compound B]
% DECREASE ROTATIONS ([1]; drug 1 0.03 mg/kg PO): 29% * ^
% DECREASE ACTIVITY REL TO VEH + AMPH (mice [2]; drug 1 0.03 mg/kg IP): 68% ^⋄
TOTAL ACTIVITY POST-AMPHETAMINE (AUC) (mice [2]; drug 1 0.03 mg/kg IP): 3940.5 ± 573.7
% DECREASE ACTIVITY REL TO VEH + AMPH (mice [2]; drug 1 1 mg/kg IP): 64% ^⋄
TOTAL ACTIVITY POST-AMPHETAMINE (AUC) (mice [2]; drug 1 1 mg/kg IP): 4462.0 ± 957.5
alpha-2A receptor activity (alpha-2A receptor): lack significant alpha-2A receptor activity

Clc1cccc(C(c2ccccc2)c2c[nH]cn2)c1Cl (centres unmarked) [Compound C]
% DECREASE ACTIVITY REL TO VEH + AMPH (mice [2]; drug 1 0.03 mg/kg IP): 52% ^⋄
TOTAL ACTIVITY POST-AMPHETAMINE (AUC) (mice [2]; drug 1 0.03 mg/kg IP): 6348.0 ± 423.4
alpha-2A receptor activity (alpha-2A receptor): lack significant alpha-2A receptor activity

S=c1[nH]cc(CC2CC=CC2)[nH]1 [Compound D]
% DECREASE ROTATIONS ([1]; drug 1 0.1 mg/kg PO): 51% ^⋄ *
% DECREASE ROTATIONS ([1]; drug 1 1 mg/kg PO): 60% ^⋄ *
% DECREASE ACTIVITY REL TO VEH + AMPH (mice [2]; drug 1 0.01 mg/kg PO): 14% *
TOTAL ACTIVITY POST-AMPHETAMINE (AUC) (mice [2]; drug 1 0.01 mg/kg PO): 10664.0 ± 786.2
% DECREASE ACTIVITY REL TO VEH + AMPH (mice [2]; drug 1 0.03 mg/kg PO): 51% ^⋄
TOTAL ACTIVITY POST-AMPHETAMINE (AUC) (mice [2]; drug 1 0.03 mg/kg PO): 5987.5 ± 1369.
% DECREASE ACTIVITY REL TO VEH + AMPH (mice [2]; drug 1 0.1 mg/kg PO): 43% ^⋄ *
TOTAL ACTIVITY POST-AMPHETAMINE (AUC) (mice [2]; drug 1 0.1 mg/kg PO): 6992.5 ± 693.1
% DECREASE ACTIVITY REL TO VEH + AMPH (mice [2]; drug 1 1 mg/kg PO): 62% ^⋄
TOTAL ACTIVITY POST-AMPHETAMINE (AUC) (mice [2]; drug 1 1 mg/kg PO): 4650.0 ± 628.9
alpha-2A receptor activity (alpha-2A receptor): lack significant alpha-2A receptor activity

Clc1cccc(CNC2=NCCN2)c1Cl [Compound F]
% DECREASE ACTIVITY REL TO VEH + AMPH (mice [2]; drug 1 0.03 mg/kg IP): 26% ^⋄ *
TOTAL ACTIVITY POST-AMPHETAMINE (AUC) (mice [2]; drug 1 0.03 mg/kg IP): 9933.0 ± 1898.7
% DECREASE ACTIVITY REL TO VEH + AMPH (mice [2]; drug 1 0.3 mg/kg IP): 29% ^⋄ *
TOTAL ACTIVITY POST-AMPHETAMINE (AUC) (mice [2]; drug 1 0.3 mg/kg IP): 9442.3 ± 1306.7
% DECREASE ACTIVITY REL TO VEH + AMPH (mice [2]; drug 1 1 mg/kg IP): 45% ^⋄
TOTAL ACTIVITY POST-AMPHETAMINE (AUC) (mice [2]; drug 1 1 mg/kg IP): 7437.8 ± 1812.4
% DECREASE ACTIVITY REL TO VEH + AMPH (mice [2]; drug 1 3 mg/kg IP): 62% ^⋄
TOTAL ACTIVITY POST-AMPHETAMINE (AUC) (mice [2]; drug 1 3 mg/kg IP): 5169.0 ± 1481.4
alpha-2A receptor activity (alpha-2A receptor): lack significant alpha-2A receptor activity

O=C(CCCN1CCC(O)(c2ccc(Cl)cc2)CC1)c1ccc(F)cc1 [Haloperidol, reference compound]
% DECREASE ACTIVITY REL TO VEH + AMPH (mice [2]; drug 1 0.2 mg/kg IP): 91% ^⋄ *
TOTAL ACTIVITY POST-AMPHETAMINE (AUC) (mice [2]; drug 1 0.2 mg/kg IP): 1123.2 ± 280.1
